Measurements: patent US20250214996A1, “SALTS AND SOLID FORMS OF AN ESTROGEN RECEPTOR ANTAGONIST” (Olema Pharmaceuticals, Inc., priority 2022, published 2025)
In brackets after ≈: the same amount, converted by molar mass. Several values for one entry are separate records, joined by “and”; a condition that tells them apart may be missing. Equal entries are not always repeated. Where two headings read alike, the source gives them in different places. Marks after values point to notes of the source that are not given here.

Columns and labels:
[1] = Dynamic vapor sorption (DVS) hygroscopicity; format: physicochemical; conditions: for Form Change after DVS?: XRPD before and after DVS
Procedure: Dynamic Vapor Sorption (DVS) was measured by a SMS (Surface Measurement Systems) DVS Intrinsic. Parameters for DVS test are listed below:
Alternatively, DVS was performed using Intrinsic DVS ([…], UK). About 30-50 mg of sample was placed in a sample basked and hung in the measuring chamber. For an isotherm test, the chamber temperature is maintained by a water bath at a constant 25±1° C. The sample was tested at a targeted RH from 0 to 90% full cycle in step mode. The analysis was performed in 10% RH increments. Time duration at each RH was set as 60 min so that the sample could reach equilibrium with the chamber environment. Data were collected in 20 s increments.
A DVS isotherm plot was collected at 25° C. to investigate the solid form stability as a function of humidity. For Compound 1 Fumarate Form A Anhydrate, solids were pre-equilibrated at 0% RH to remove the unbounded solvent or water before the hygroscopicity experiment was started.

[2] = Kinetic solubility estimate, solvent aliquot addition, visual observation; format: physicochemical
Procedure: A polymorph screen was conducted using amorphous Compound 1. To help design the experiments, kinetic solubilities of the compound were estimated. The estimation was done using a solvent aliquot addition method, and dissolution was judged by visual observation. In Table 14, solvent ratios (v/v) are approximate; values are rounded to nearest whole number. If complete dissolution was achieved by one aliquot addition, solubilities were reported as “>”; if […], solubilities were reported as “<”. The actual solubility may be larger than the value calculated due to the use of solvent aliquots that were too large or due to a slow rate of dissolution.
A polymorph screen was conducted using Compound 1 Fumarate Form A Ethyl Acetate Solvate. The screen consisted primarily of long term slurry experiments. To help design screen experiments, kinetic solubilities of Fumarate Form A Ethyl Acetate Solvate were estimated. The estimation was done on a 3-11 mg scale using a solvent aliquot addition method, and dissolution was judged by visual observation. Solubilities are estimated at ambient temperature and reported to the nearest mg/mL; if complete dissolution was achieved by one aliquot addition, solubilites were reported as […]

[3] = Solubility by dynamic method; format: physicochemical; conditions: for solubility at 15 min: organic solvent or mixture, thermodynamic from solid; for solubility at 15 min / Solubility: Dynamic
Procedure: […] Solubility was measured by the dynamic method and gravimetric method.
Dynamic method: Under the condition of a certain amount of solute and certain temperature, solvent was gradually added with stirring for 15 min to reach equilibrium. When solute is completely dissolved, amount of solvent was recorded and the solubility calculated.

[4] = Stability in oven at 60° C. for two weeks; format: physicochemical; conditions: for HPLC Purity (%) Starting: before storage; for XRPD: form after oven at 60° C. for two weeks
Procedure: Amorphous Compound 1, Compound 1 Fumarate Form E, and Compound 1 Fumarate Form A Anhydrate were placed in an oven at 60° C. for two weeks to evaluate their stability.

[5] = Pharmacokinetic study in Beagle dogs, oral capsule; format: in vivo; conditions: for AUClast/D / AUC∞/D: dose-normalised
Procedure: Compound 1 […] in two different forms was administered orally (PO) to male and female Beagle dogs. Blood was serially collected up to 144 hours post dose for determination of plasma pharmacokinetic analysis.
Animals were healthy at the start of the study and were between 1 and 6.5 years of age. Initial body weights were recorded at the start of the study and general health observations were recorded at each blood collection time point.
Each Group contained 3 male and 1 female dog. Capsules were administered by placing the capsule to the back of the throat, followed by a 10 mL flush with drinking water.
Plasma concentrations of Compound 1 were determined by LC-MS/MS. Pharmacokinetic parameters were determined using Phoenix WinNonlin (v8.0) non-compartmental analyses.

[6] = Solid form change on heating (XRPD); format: physicochemical
[7] = Solubility by gravimetric method; format: physicochemical; conditions: H2O, 25° C.
Procedure: Solubility studies of Compound 1 and Compound 1 Fumarate in different solvents at 25° C. were performed. Solubility was measured by the dynamic method and gravimetric method.
Gravimetric method: Excess solids and a certain amount of solvent were added 8 mL vials, stirred for 24 hours, and filtered.

[8] = Bulk density in graduated cylinder; format: physicochemical
Procedure: Bulk density of Compound 1 Fumarate Form E was measured by gently introducing a known sample mass into a graduated cylinder (50 mL), leveling the powder without compacting it, and recording the apparent untapped volume to the nearest graduated unit.

[9] = Competitive slurry of Fumarate Form E and Fumarate Form A Anhydrate (XRPD); format: physicochemical
Procedure: Competitive slurry experiments were performed with Compound 1 Fumarate Form E and Compound 1 Fumarate Form A Anhydrate, as follows:
Experiment #1: Compound 1 Fumarate Form E (100 mg), Compound 1 Fumarate Form A Anhydrate (100 mg), and isopropanol (2 mL) were added into two 8-mL vials and mixed well in a shaker at 25° C. and 40° C., respectively. Samples for analysis were taken at 24 h and 72 h.
Experiment #2: Compound 1 Fumarate Form E (100 mg), Compound 1 Fumarate Form A Anhydrate (100 mg), and water (2 mL) were added into two 8-mL vials and mixed well in a shaker at 25° C. and 40° C., respectively. Samples for analysis were taken at 24 h and 72 h.
Experiment #3: Compound 1 Fumarate Form E (100 mg), Compound 1 Fumarate Form A Anhydrate (100 mg), and ethyl acetate (2 mL) were added into two 8-mL vials and mixed well in a shaker at 25° C. and 40° C., respectively. Samples for analysis were taken at 24 h and 72 h.

[10] = both sexes, dog, dose 5.34 mg/kg (Group 1), 7.4 mg/kg (Group 2), plasma
[11] = dose 5.34 mg/kg (Group 1), 7.4 mg/kg (Group 2), plasma

CCCN1CC(Oc2ccc([C@@H]3c4[nH]c5ccccc5c4C[C@@H](C)N3CC(C)(C)F)cc2)C1 [Amorphous Compound 1]
Form Change after DVS? ([1]; listed as Amorphous Freebase): No
Hygroscopicity (%)* (class) ([1]; based on water uptake at 25° C./80% RH): Slightly
Hygroscopicity (%)* (water uptake) ([1]; water uptake at 25° C./80% RH): (0.463) %
Solubility ([2]; aqueous with cosolvent or surfactant or cyclodextrin, thermodynamic from solid, amorphous Compound 1, 2-MeTHF/MeOH/water (60/20/20), read-out: Solubility): 106 mg/mL (≈ 236 mM)
Solubility ([2]; aqueous with cosolvent or surfactant or cyclodextrin, thermodynamic from solid, amorphous Compound 1, ACN/water (60/40), read-out: Solubility): < 6 mg/mL
Solubility ([2]; aqueous with cosolvent or surfactant or cyclodextrin, thermodynamic from solid, amorphous Compound 1, Dioxane/water (60/40), read-out: Solubility): < 13 mg/mL
Solubility ([2]; aqueous with cosolvent or surfactant or cyclodextrin, thermodynamic from solid, amorphous Compound 1, MeOH/water (40/60), appeared hydrophobic, read-out: Solubility): < 55 mg/mL
Solubility ([2]; aqueous with cosolvent or surfactant or cyclodextrin, thermodynamic from solid, amorphous Compound 1, NMP/water (68/32), read-out: Solubility): 7 mg/mL (≈ 15.6 mM)
Solubility ([2]; organic solvent or mixture, thermodynamic from solid, amorphous Compound 1, Heptane, read-out: Solubility): > 191 mg/mL
Solubility ([2]; organic solvent or mixture, thermodynamic from solid, amorphous Compound 1, IPA, read-out: Solubility): 82 mg/mL (≈ 182 mM)
solubility in isopropanol ([3]; 25° C.): high solubility
solubility at 15 min ([3]; IPA, 25° C.): > 468 mg/mL
HPLC Purity (%) Starting [4]: 99.23%
XRPD [4]: No change
HPLC Purity (%) 60° C. ([4]; oven at 60° C. for two weeks): 98.94%
HPLC Purity (%) Degradation ([4]; oven at 60° C. for two weeks): −0.29%
Cmax [5, 10]: 0.343 µg/mL
MRT last [5, 10]: 37.8 h
half-life [5, 10]: 56.4 h
tmax ([5]; both sexes, dog, dose 5.34 mg/kg (Group 1), 7.4 mg/kg (Group 2), plasma, read-out: tmax): 3.25 h
AUC(0-inf) ([5]; both sexes, dog, plasma, dose 5.34 mg/kg (Group 1), 7.4 mg/kg (Group 2)): 8.96 µg·h/mL
AUC(0-t) ([5]; both sexes, dog, plasma, dose 5.34 mg/kg (Group 1), 7.4 mg/kg (Group 2), up to 144 hours): 7.46 µg·h/mL
AUClast/D [5]: 1297 kg·ng·h/mL/mg
AUC∞/D [5]: 1527 kg·ng·h/mL/mg

CCCN1CC(Oc2ccc([C@@H]3c4[nH]c5ccccc5c4C[C@@H](C)N3CC(C)(C)F)cc2)C1 [Compound 1 Form B]
form after heating (XRPD) ([6]; heating to 100° C.): became amorphous

CCCN1CC(Oc2ccc([C@@H]3c4[nH]c5ccccc5c4C[C@@H](C)N3CC(C)(C)F)cc2)C1 [Compound 1 Form A Acetonitrile Solvate]
hygroscopicity by DVS ([1]; DVS): slightly hygroscopic
water uptake (DVS) ([1]; DVS, FIG. 4): 1.9%
Form Change after DVS? [1]: same crystalline pattern after DVS
form after heating (XRPD) ([6]; heating to 70° C. and 80° C.): became amorphous

CCCN1CC(Oc2ccc([C@@H]3c4[nH]c5ccccc5c4C[C@@H](C)N3CC(C)(C)F)cc2)C1.O=C(O)/C=C/C(=O)O
Solubility ([2]; ambient temperature, 2-BuOH): 17 mg/mL
Solubility ([2]; ambient temperature, 2-McTHF): 32 mg/mL
Solubility (mg/mL) ([2]; ambient temperature, ACN, re-precipitated after first aliquot): <2* mg/mL
Solubility ([2]; ambient temperature, Anisole): <1 mg/mL
Solubility ([2]; ambient temperature, DCE): <9 mg/mL
Solubility (mg/mL) ([2]; ambient temperature, DCE/EtOH (96/4)): Dissolved at 8 mg/mL
Solubility ([2]; ambient temperature, Dioxane): >104 mg/mL
Solubility ([2]; ambient temperature, IPA): 20 mg/mL
Solubility ([2]; ambient temperature, IPA/water (50/50)): >124 mg/mL
Solubility ([2]; ambient temperature, MIBK): 4 mg/mL
Solubility ([2]; ambient temperature, MTBE): 2 mg/mL
Solubility ([2]; ambient temperature, TFE): >100 mg/mL
Solubility (mg/mL) ([2]; ambient temperature, t-BuOAc, re-precipitated after first aliquot): 1* mg/mL
AUC∞ ([5]; dose 5.34 mg/kg (Group 1), 7.4 mg/kg (Group 2)): 17.271 µg·h/mL
MRTlast [5, 11]: 39.8 h
t1/2 [5, 11]: 49.6 h
tmax [5, 11]: 3.5 h
AUClast/D [5]: 2001 kg·ng·h/mL/mg
AUC∞/D [5]: 2351 kg·ng·h/mL/mg

CCCN1CC(Oc2ccc([C@@H]3c4[nH]c5ccccc5c4C[C@@H](C)N3CC(C)(C)F)cc2)C1.O=C(O)/C=C/C(=O)O [Compound 1 Fumarate Form E]
hygroscopicity by DVS ([1]; DVS): not hygroscopic
Solubility ([3]; IPA/heptane (1/1), 25° C.): ~2.35 mg/mL
Solubility ([3]; IPA/heptane (1/3), 25° C.): <1 mg/mL
Solubility ([3]; IPA/heptane (5/1), 25° C.): 5.89 mg/mL
Solubility ([3]; IPA/heptane (5/3), 25° C.): ~3.57 mg/mL
Solubility ([3]; IPA, 0° C.): <1 mg/mL
Solubility ([3]; IPA, 25° C.): ~8.46 mg/mL
solubility in isopropanol ([3]; 25° C.): very low solubility
Solubility [7]: 1.0 mg/mL
Bulk Density (g/mL), Average ([8]; average of three runs): 0.1239 g/mL
Bulk Density ([8]; untapped, runs 1-3): 0.1288 g/mL and 0.1233 g/mL and 0.1196 g/mL
HPLC Purity (%) Starting [4]: 99.54%
XRPD [4]: No change
HPLC Purity (%) 60° C. ([4]; oven at 60° C. for two weeks): 99.50%
HPLC Purity (%) Degradation ([4]; oven at 60° C. for two weeks): −0.05%
stability relative to Amorphous Compound 1 ([4]; oven at 60° C. for two weeks): improved stability
competitive slurry outcome (XRPD) ([9]; ethyl acetate, 72 h at 25° C. or 40° C.): a mixture of Compound 1 Fumarate Form E and Compound 1 Fumarate Form A Anhydrate remained
competitive slurry outcome (XRPD) ([9]; isopropanol, 24 h at 25° C. or 40° C.): more stable than Form A in isopropanol
competitive slurry outcome (XRPD) ([9]; water, 72 h at 25° C. or 40° C.): a mixture of Compound 1 Fumarate Form E and Compound 1 Fumarate Form A Anhydrate remained

O=C(O)/C=C/C(=O)O [Fumaric acid]
solubility in isopropanol ([3]; 25° C.): relatively low solubility
solubility at 15 min ([3]; IPA, 25° C.): 34.3 mg/mL (≈ 296 mM)
